US20230037538A1, “ANTI-ALS COMPOUNDS” (Takeda Pharmaceutical Company Limited, priority 2021, published 2023)

Legend:
Format in all cases: cell-based, human
FTD affected fibroblasts = assay: Stress granule assay in FTD affected fibroblasts (TDP-43 / HuR immunostaining after arsenite stress); details: vehicle (DMSO) alone set at 100, lower = fewer TDP-43 aggregates; for activity at 1 µM: Homo sapiens, Fibroblast, 1 μM compound, read-out: Normalized average number of TDP-43 positive HuR aggregates per cell at 1 μM; for Normalized average number of TDP-43 positive HuR aggregates per cell at 1.5 μM: 1.5 μM compound
Method: In this assay, TDP-43 aggregates in stress granules were quantified after 24 hrs of drug treatment followed by 90 minutes of 100 μM arsenite stress.
On day 1 20,000 patient derived fibroblasts per well were seeded in a 24 well glass bottom plate or 6000 cells per well in a 96 well plate. On day 2 compounds were added at the desired final concentration in fresh media to the respective wells. On day 3 sodium arsenite was added at a final concentration of 500 μM. Incubated at 37° C. for 60 mins. On day 9 wells were washed with PBS and fixed cells using 4% para formaldehyde (in PBS, prepared freshly, methanol free) for 15 mins at room temperature. Washed with PBS, blocked and permeabilized cells with 1% BSA+1% saponin (prepared in PBS) for 1 hour. For Immunostaining primary antibodies were made in 1% BSA (in PBS) and incubated overnight at 4° C. Rabbit polyclonal TDP-43 C-terminal antibody (Proteintech 12892-1-AP)-1:350; mouse monoclonal HuR antibody (Santa Cruz sc-5261)-1:500. On the next day, added the following secondary antibodies Alexa 594 anti-rabbit (Thermofisher Scientific) and Alexa 488 anti-mouse (Thermofisher Scientific) (1:500) in 1% BSA (in PBS) and kept in dark for 1-2 hours at room temperature. Washed and added DAPI in PBS for nuclear staining. The images were analyzed by the open source image analysis software CellProfiler 2.1.1 (offered by Broad Institute of Harvard and MIT—www.cellprofiler.org). This software contains various modules which can be used to analyze images in different ways.
The lower the number, the fewer the TDP-43 aggregates compared to vehicle (DMSO) alone, which is set at 100.

Mutant TDP-43 fibroblast = assay: Nucleocytoplasmic assay (NCA) in patient fibroblast, mutant TDP-43 fibroblast; details: compound at 1 μM; DMSO-treated cell set as 100
Method: (§1) Skin-derived fibroblasts cells from Amnyotrophic Lateral Sclerosis (ALS) and Frontotemporal Degeneration (FTD) patients or affected individual acquired from the National Institute of Neurological Disorders and Stroke (NINDS #ND32947, ND41006, ND42717) were grown in HyClone DMEM High Glucose (GE Healthcare Life Sciences) supplemented with 15% FBS and 1% NEAA (Non-Essential Amino Acids), at 37° C. in a humidified atmosphere of 5% CO2. On day 1600 cells per well were seeded in a 96 well glass bottom plate or 1200 cells per well in a 24 well glass bottom plate. Incubated for 4 days, at 37° C. in a humidified atmosphere of 5% CO2, allowed cells to grow for 4 days. On day added compounds including vehicle control at the desired final concentration in fresh media to the respective wells, allowed cells to grow for an additional 4 days. On day 9 washed wells with PBS and fixed cells using 4% para formaldehyde (in PBS, prepared freshly, methanol free) for 15 mins at room temperature. Washed with PBS, blocked and permeabilized cells with 1% BSA+1% saponin (prepared in PBS) for 1 hour. For immunostaining the following primary antibodies were added in 1% BSA (in PBS) and incubated overnight at 4° C. Rabbit polyclonal TDP-43 C-terminal antibody (Proteintech 12892-1-AP)-1:350; mouse monoclonal HuR antibody (Santa Cruz sc-5261)-1:500. On the next day, added the following secondary antibodies Alexa 594 anti-rabbit (Thermofisher Scientific) and Alexa 488 anti-mouse (Thermofisher Scientific) (1:500) in 1% BSA (in PBS) and kept it in dark for 1-2 hours at room temperature. Wash and add DAPI in PBS for nuclear staining.
(§2) The immuno-stained cells were imaged with Nikon Ti inverted fluorescence microscope having CSU-22 spinning disk confocal and EMCCD camera. Plan Apo 20×/0.75 objective and NIS-Elements AR software were used for image acquisition. At least 15 images per well were taken. The exposure times for TDP-43 and HuR remained constant across one experiment. Each image acquired (in .nd format) was exported into three individual channel images (for DAPI, TDP-43, HuR) in .tiff format. The images were analyzed by the open source image analysis software Cell Profiller to calculate the signal intensities of TDP-43 present in the nucleus and cytoplasm in each cell. The DAPI image was used to count the total number of cells. The TDP-43 and HuR images are used to count the number of cells containing TDP-43 and/or HuR nuclear staining.
(§3) The nucleus/cytoplasm ratio of intensities of TDP-43 in each compound-treated (at 1 μM) cells comparing to DMSO-treated cell (which is set as 100) were shown.

Mutant VCP fibroblast = assay: Nucleocytoplasmic assay (NCA) in patient fibroblast, mutant VCP fibroblast; details: compound at 1 μM; DMSO-treated cell set as 100
Method: as §1, §2, §3

[1] = system: Fibroblast from FTD affected individual; assay: Nucleocytoplasmic assay (NCA) in patient fibroblast, fibroblast from FTD affected individual; details: compound at 1 μM; DMSO-treated cell set as 100
Method: as §1, §2, §3

| Compound | activity at 1 µM (FTD affected fibroblasts) [%] | nucleus/cytoplasm ratio of intensities of TDP-43, Mutant TDP-43 fibroblast (Mutant TDP-43 fibroblast) | nucleus/cytoplasm ratio of intensities of TDP-43, Mutant VCP fibroblast (Mutant VCP fibroblast) | nucleus/cytoplasm ratio of intensities of TDP-43, Fibroblast from FTD affected individual [1] | Normalized average number of TDP-43 positive HuR aggregates per cell at 1.5 μM (FTD affected fibroblasts) |
| --- | --- | --- | --- | --- | --- |
| COc1cnc2c(c1)c(/C=C/C1NCCc3cc(OCc4ccccc4)c(OC)cc31)cn2C (centres unmarked) [Example 7, 6-(benzyloxy)-7-methoxy-1-[(E)-2-(5-methoxy-1-methyl-1H-pyrrolo[2,3-b]pyridin-3-yl)ethenyl]-1,2,3,4-tetrahydroisoquinoline] | 40 | 143 | 191 | 175 |  |
| COc1cc2c(cc1OCc1ccccc1)CCNC2/C=C/c1cc2c(cc1C)OCO2 (centres unmarked) [Example 5, 6-(benzyloxy)-7-methoxy-1-[(E)-2-(6-methyl-2H-1,3-benzodioxol-5-yl)ethenyl]-1,2,3,4-tetrahydroisoquinoline] | 83.3 | 137 | 179 | 139 |  |
| COc1cc2c(cc1OCc1ccccc1)CCNC2/C=C/c1ccc(-c2cncnc2)cc1Cl (centres unmarked) [Example 9, 6-(benzyloxy)-1-{(E)-2-[2-chloro-4-(pyrimidin-5-yl)phenyl]ethenyl}-7-methoxy-1,2,3,4-tetrahydroisoquinoline] |  |  | 200 |  |  |
| CCOC(=O)c1cnc2ncc(/C=C/C3NCCc4cc(OCc5ccccc5)c(OC)cc43)n2c1 (centres unmarked) [AG, Ethyl (E)-3-(2-(6-(benzyloxy)-7-methoxy-1,2,3,4-tetrahydroisoquinolin-1-yl)vinyl)imidazo[1,2-a]pyrimidine-6-carboxylate] | 87 |  |  |  |  |
| COc1cc2c(cc1OCc1ccccc1)CCNC2/C=C/c1cc2c(cc1C)OCCO2 (centres unmarked) [Example 4, 6-(benzyloxy)-7-methoxy-1-[(E)-2-(7-methyl-2,3-dihydro-1,4-benzodioxin-6-yl)ethenyl]-1,2,3,4-tetrahydroisoquinoline] | 70.9 | 130 |  |  |  |
| COc1cc2c(cc1OCc1ccccc1)CCNC2/C=C/c1cnc2ncc(C(=O)O)cn12.Cl (centres unmarked) [AH, (E)-3-(2-(6-(benzyloxy)-7-methoxy-1,2,3,4-tetrahydroisoquinolin-1-yl)vinyl)imidazo[1,2-a]pyrimidine-6-carboxylic acid] |  |  |  |  | 71.4 |
| COc1cc2c(cc1OCc1ccccc1)CCNC2/C=C/c1cnc2ncc(F)cn12 (centres unmarked) [AC, (E)-6-(benzyloxy)-1-(2-(6-fluoroimidazo[1,2-a]pyrimidin-3-yl)vinyl)-7-methoxy-1,2,3,4-tetrahydroisoquinoline] | 85.8 |  |  |  |  |
| COc1cc2c(cc1OCc1ccccc1)CCNC2/C=C/c1cn(C)c2nccc(OC)c12 (centres unmarked) [Example 26, 6-(benzyloxy)-7-methoxy-1-[(E)-2-(4-methoxy-1-methyl-1H-pyrrolo[2,3-b]pyridin-3-yl)ethenyl]-1,2,3,4-tetrahydroisoquinoline] | 59 |  | 256 | 146 |  |
| COc1cc2c(cc1OCc1ccccc1)CCNC2/C=C/c1cnc2ncc(C)cn12 (centres unmarked) [AF, (E)-6-(benzyloxy)-7-methoxy-1-(2-(6-methylimidazo[1,2-a]pyrimidin-3-yl)vinyl)-1,2,3,4-tetrahydroisoquinoline] |  |  |  |  | 65.5 |
| COc1cc2c(cc1OCc1ccccc1)CCNC2/C=C/c1cnc2ncccn12 (centres unmarked) [AA, (E)-6-(benzyloxy)-1-(2-(imidazo[1,2-a]pyrimidin-3-yl)vinyl)-7-methoxy-1,2,3,4-tetrahydroisoquinoline] | 85 |  |  |  |  |
| COc1cc2c(cc1OCc1ccccc1)CCNC2/C=C/c1cnc2ncc(C(F)(F)F)cn12 (centres unmarked) [AD, (E)-6-(benzyloxy)-7-methoxy-1-(2-(6-(trifluoromethyl)imidazo[1,2-a]pyrimidin-3-yl)vinyl)-1,2,3,4-tetrahydroisoquinoline] | 83 |  |  |  | 71.00 |
| COc1cnc2ncc(/C=C/C3NCCc4cc(OCc5ccccc5)c(OC)cc43)n2c1 (centres unmarked) [AE, (E)-6-(benzyloxy)-7-methoxy-1-(2-(6-methoxyimidazo[1,2-a]pyrimidin-3-yl)vinyl)-1,2,3,4-tetrahydroisoquinoline] |  |  |  |  | 73.75 |
| COc1cc(C)c(/C=C/C2NCCc3cc(OCc4ccccc4)c(OC)cc32)cc1OC (centres unmarked) [Example 1, 6-(benzyloxy)-1-[(E)-2-(4,5-dimethoxy-2-methylphenyl)ethenyl]-7-methoxy-1,2,3,4-tetrahydroisoquinoline] | 67 | 147 | 153 | 148 |  |
